The target of one data set is CYP2D6 (Homo sapiens, UniProt P10635). Description: CYP2D6-mediated metabolism: substrate disappearance in PM human liver microsome HHM-0116 supplemented with recombinant CYP2D6-expressing microsome. The following applies: microsomes, 1 μM substrate, 60 min incubation. The method, then: a) CYP2D6-mediated metabolism
The pH of the solution was 7.4. The incubation temperature was 37° C. At specific incubation times (0, 5, 10, 30, 60 minutes), an aliquot of 100 μl was withdrawn from the reaction mixture and mixed with 1 ml of ACN containing 5 ng/ml (2S, 3S)-3-(2-methoxybenzylamino)-2-diphenylmethyl-1-azabicyclo[2,2,2] octane as an internal standard. Protein was subsequently precipitated by centrifugation (1,800×g for 10 min). and the resulting supernatant was taken, evaporated and dissolved in 100 μl of 60% ACN. Concentrations of substrates and products in the sample solutions were analyzed with a Sciex API-III mass spectrometer linked with a Hewlett-Packard HP1090 HPLC system. A volume of 10 μl of the sample portion was injected to the HPLC system equipped with a Tosoh ODS-80Ts column manufactured by Tosoh (3.2×15 mm). Mobile phases comprised 80% acetonitrile(ACN) and 10 mM ammonium acetate and the elution was isocratic with a flow rate of 0.2 mlimin. The effluent from the HPLC column was introduced into the atmospheric pressure ionization source via an ion spray interface with splitting the effluent. The ion spray interface was operated at 5000 volt in a positive ion mode. Collision gas (argon) thickness (CGT), curtain gas (N2) and Neblizer gas (air) was 300×10^13 molecules/cm^2, 0.6 liter/minute and 40 PSI, respectively. The Q2 rod offset voltage (R2) was 0-6 V. The compounds were detected by multiple reacting monitoring (MRM) detection in the API-III mass spectrometer. The MS-MS were generally the combination of precursor and product. […] Concentrations of the remaining substrates in each sample solution (%-remaining) were plotted against the desired incubation times (FIG. 1(a), (c), (e), (g), (i), (k)).
Background: Microsomes from liver hold many membrane-bound enzymes, among them those of drug oxidation.

The target in the next data set is CYP2C19 (Homo sapiens, UniProt P33261). Description: S-mephenytoin hydroxylation activity. It counts as biochemical. The following applies: 100 μM S-(+)-Mephenytoin, pH 7.4, 37 °C. As for the experimental part: As used herein, "S-mephenytoin hydroxylation activity" means the activity of 4'hydroxylation of S-mephenytoin as measured by HPLC-MS.
The reagent compositions of this invention, PM microsome (i.e., HHM0102), normal human liver microsomes mixture (i.e., HLM mix-A, and HLM mix-B, and (CYP2C19 0.1 mg/ml) were tested for hydroxymephenytoin generation activity which is a known property of microsome obtained from a normal metabolizer.
HHM-0102 microsomes (1.0 mg protein/ml) were mixed with a total of 0.3 mg protein/ml of CYP2C19 microsomes and the control microsomes with various ratios. […] Hydroxy mephenytoin which was generated in samples were analyzed by LC/MS/MS.

Sequence of CYP2D6 (P10635 whole entry): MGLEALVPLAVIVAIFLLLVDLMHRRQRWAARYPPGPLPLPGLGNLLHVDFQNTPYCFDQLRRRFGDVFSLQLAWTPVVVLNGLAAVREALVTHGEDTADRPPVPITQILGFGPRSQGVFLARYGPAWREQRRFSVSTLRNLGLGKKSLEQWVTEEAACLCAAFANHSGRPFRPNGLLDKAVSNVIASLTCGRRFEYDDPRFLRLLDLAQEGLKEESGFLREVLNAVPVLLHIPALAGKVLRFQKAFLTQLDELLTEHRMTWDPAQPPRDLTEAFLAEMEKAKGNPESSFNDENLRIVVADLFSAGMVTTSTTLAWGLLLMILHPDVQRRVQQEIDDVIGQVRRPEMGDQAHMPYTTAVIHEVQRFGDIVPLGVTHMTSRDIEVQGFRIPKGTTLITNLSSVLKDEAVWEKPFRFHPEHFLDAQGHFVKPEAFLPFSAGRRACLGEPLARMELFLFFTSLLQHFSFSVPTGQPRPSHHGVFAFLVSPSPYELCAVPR

A word on the half-life: it is how long it takes for the measured level to halve. Take `CC(C)NCC(O)COc1cccc2ccccc12` (centres unmarked) [Propranolol, propranolol]: the half-life at 1 µM on CYP2D6 (pH 7.4, T1/2, HHM0116 + 0 mg/ml 2D6 (control microsome)) was 301 min; on CYP2D6 (pH 7.4, T1/2, HHM0116 + 0.1 mg/ml recombinant CYP2D6 microsome), 70.2 min; on CYP2D6 (pH 7.4, T1/2, HHM0116 + 0.5 mg/ml recombinant CYP2D6 microsome) it was 15 min; at CYP2D6 (pH 7.4, T1/2, HHM0116 + 1.0 mg/ml recombinant CYP2D6 microsome) it was 5.4 min.

B1: CYP2C19 0.1 mg/ml: CYP2C19 microsomes at 0.1 mg/ml, tested alone (protein, UniProt P33261 1-490, looked up)
Cytochrome P450 2C19: MDPFVVLVLCLSCLLLLSIWRQSSGRGKLPPGPTPLPVIGNILQIDIKDVSKSLTNLSKIYGPVFTLYFGLERMVVLHGYEVVKEALIDLGEEFSGRGHFPLAERANRGFGIVFSNGKRWKEIRRFSLMTLRNFGMGKRSIEDRVQEEARCLVEELRKTKASPCDPTFILGCAPCNVICSIIFQKRFDYKDQQFLNLMEKLNENIRIVSTPWIQICNNFPTIIDYFPGTHNKLLKNLAFMESDILEKVKEHQESMDINNPRDFIDCFLIKMEKEKQNQQSEFTIENLVITAADLLGAGTETTSTTLRYALLLLLKHPEVTAKVQEEIERVIGRNRSPCMQDRGHMPYTDAVVHEVQRYIDLIPTSLPHAVTCDVKFRNYLIPKGTTILTSLTSVLHDNKEFPNPEMFDPRHFLDEGGNFKKSNYFMPFSAGKRICVGEGLARMELFLFLTFILQNFNLKSLIDPKDLDTTPVVNGFASVPPFYQLCFIPV
modifications: microsomes
notes: CYP2C19 microsomes at 0.1 mg/ml, tested alone
Turning to B1, the “S-mephenytoin hydroxylation Activity” value with CYP2C19 is on record as 18.110 pmol/min/mg.

Source of the values: patent publication US5989844A, “Method for evaluating drug metabolism and reagent compositions therefor” (Pfizer Inc., priority 1997, dated 1999).
